Measurements published in US11730712B2, “Functionalized long-chain hydrocarbon mono- and di-carboxylic acids and derivatives thereof, and their use for the prevention or treatment of disease” (ESPERVITA THERAPEUTICS, INC., priority 2021, dated 2023).
Several values for one entry are separate records, joined by “and”; a condition that tells them apart may be missing. Equal values may be shown once. Entries after “also recorded” stand apart in the source; their conditions may differ.

Legend:
[1] = tested on: DEN-injected mice on high fat high fructose diet; test: NASH-HCC model by diethylnitrosamine (DEN) induction: tumors, ALT/AST, liver histology; type: in vivo, mouse; set-up: key to Fibrosis Score, individual mice: 1a: Mild (delicate) zone 3 perisinusoidal fibrosis, requires Masson's trichome stain to identify; 1b: Moderate(dense) zone 3 perisinusoidal fibrosis; 1c: Portal fibrosis only; NAFLD Activity Score, individual mice / NAFLD Activity Score, Avg: scale not given here; settings: 4 weeks; for Fibrosis Score, individual mice / NAFLD Activity Score, individual mice / No. of Surface Tumors, individual mice / NAFLD Activity Score, Avg / No. of Surface Tumors, Avg: 100 mg/kg daily oral gavage; for No. of Surface Tumors, individual mice: mice analyzed by Nanostring; for NAFLD Activity Score, Avg / No. of Surface Tumors, Avg: n=8; for liver fibrosis (trichrome stained livers): 100 mg/kg; for NAFLD activity scores (NAS) / liver inflammation scores / liver steatosis and ballooning scores: 30 and 100 mg/kg; for plasma ALT and AST levels: 30 or 100 mg/kg, dose-dependent
Protocol: Materials and Methods. All experiments were carried out using the guidelines approved by the Animal Research Ethics Board at McMaster University, Canada. Male mice obtained from Steinberg Lab Breeding Colony housed within the McMaster University Central Animal Facility were used for these experiments. The test agents were prepared by solubilizing them in a solution of sodium bicarbonate. Compound I-32 and Compound I-1 were administered at a dose of 30 or 100 mg/kg with a dosing volume of 10 ml/kg by daily oral gavage for 4 weeks. This route was selected because it simulates the oral administration route intended for use in human clinical studies and ensures the correct dose of compound is ingested by each animal. Data are expressed as means±the standard error of the mean. Statistical comparisons were carried out using a one-way analysis of variance followed by Dunnett's post hoc test using GraphPad Prism 8 software. A p-value of less than or equal to 0.05 will be used as the criterion of significance.
Experimental Protocol. At 2 weeks of age mice were injected with diethylnitrosamine (DEN) at 25 mg/kg body weight. After weaning mice were housed with littermates and fed a normal chow diet (Teklad 8640 22/5). […] After 7.5 months, mice were bled from the tail vein and plasma alpha-fetoprotein (AFP) levels were determined. AFP is a serum biomarker of HCC progression in humans and mice treated with DEN. At 8 months, mice were divided into 5 groups, based on mean AFP levels and then received a single daily dose of either vehicle (1.5% CMC and 0.2% Tween-20) or 30 mg/kg or 100 mg/kg of Compound I-32 or Compound I-1 via gavage. Throughout the experiments mice were housed in ventilated cage racks with ad libitum access to the food and water. An automatic timing device was used to maintain an alternating 12-hour cycle of light and dark.
After 4 weeks of daily treatments mice were anesthetized by I.P. injection of Ketamine/Xylazine (150 mg/12.4 mg/kg, respectively) in saline. When anesthetic plane has been achieved, 0.5 ml of blood was drawn by cardiac puncture, and plasma was isolated and frozen in liquid nitrogen. The liver was excised intact and rinsed briefly in PBS on ice. The liver was weighed, a photo was taken and the number of visible lesions on the surface of the liver was counted and recorded. A portion of tumor-free liver (˜200 mg, caudate lobe) and up to three individual tumors were removed, flash frozen in liquid nitrogen and stored for molecular analysis. The remainder of the liver was placed in 10% formalin, fixed for 48 hours, and stored in 70% ethanol until it was embedded in paraffin, sectioned, and mounted on slides for histological analysis.
AFP assay. Before starting the treatment, mice were bled from the tail vein and plasma alpha-fetoprotein (AFP) levels were determined using mouse alpha-Feto protein/AFP Duoset ELISA kit (R&D Systems, Inc., MN, USA) as recommended by the manufacturer. 100 μl sample (1:1000 in reagent diluent) was added on each well of 96-well plate coated with mouse AFP capture antibody. Next, the plates were washed with wash buffer and 100 μl detection antibody was added to each well, followed by the Streptavidin HRP and substrate solution. The reaction was stopped by stop solution and the optical density of each well was measured in a microplate reader set to 450 nm. After measuring AFP levels, mice were divided into five groups (>800 ng/ml) and treatment was initiated.
ALT/AST assay. Plasma Alanine Transaminase (ALT) and Aspartate Transaminase (AST) levels were determined using ALT (CAK1002, Cohesion Biosciences) and AST (CAK 1004, Cohesion Biosciences) activity kits following the manufacturer instructions. 10 μl of plasma sample was added with 50 μl of substrate in 96-well plate. The reaction was carried out for 30 minutes at 37° C., detected by dye reagent I and II and absorbance was measured at 520 nm. […]

female Wistar Han rats = test: 4-day oral gavage toxicity study in female rats; settings: for clinical chemistry: globulin concentration and albumin:globulin ratio: 100 mg/kg/day Compound I-1 or 300 mg/kg/day Compound I-1 or Compound I-32; for compound-related effects in hematology or coagulation test results / compound-related mortality, clinical observations, body weight effects, changes in food consumption / dose whose effects were considered nonadverse: female rats, 4 days; for compound-related effects in hematology or coagulation test results / compound-related mortality, clinical observations, body weight effects, changes in food consumption: 100 or 300 mg/kg/day oral gavage; for dose whose effects were considered nonadverse: oral gavage; for microscopic findings in the liver: ≥100 mg/kg/day Compound I-1 or 300 mg/kg/day Compound I-32
mouse kidney = test: Kidney histology in DEN NASH-HCC mice after 4 weeks of treatment; type: in vivo; set-up: key to Tubular injury score, Average / Tubular mitoses score, Average / Tubular vacuoles score, Average / Interstitial inflammation score, Average / Interstitial fibrosis score, Average / Glomerular score, Average: 0 = not present to 5 = severe, overwhelming change; mean of mice; key to Tubular mitoses score, individual mice / Interstitial inflammation score, individual mice / Interstitial fibrosis score, individual mice / Glomerular score, individual mice / Tubular injury score, individual mice / Tubular vacuoles score, individual mice: 0—not present; 1—minimal, inconspicuous change; 2—slight, noticeable but not a prominent feature; 3—moderate, prominent feature; 4—marked, dominant but not overwhelming feature; 5—severe, overwhelming change; settings: for Glomerular score, individual mice / Interstitial fibrosis score, individual mice / Interstitial inflammation score, individual mice / Tubular injury score, individual mice / Tubular mitoses score, individual mice / Tubular vacuoles score, individual mice / Glomerular score, Average / Interstitial fibrosis score, Average / Interstitial inflammation score, Average / Tubular injury score, Average / Tubular mitoses score, Average / Tubular vacuoles score, Average: kidney; for Glomerular score, Average / Interstitial fibrosis score, Average / Interstitial inflammation score, Average / Tubular injury score, Average / Tubular mitoses score, Average / Tubular vacuoles score, Average: 8 mice
Protocol: Kidney Histology. Following fixation with 10% neutral buffered formalin for 46 hours, kidneys were cleaved longitudinally through hilium and immersed in 70% ethanol. Kidneys were then processed, paraffin embedded, serially sectioned and stained with haematoxylin and eosin (H&E) and Masson's Trichrome (MTC) by the McMaster Immunology Research Centre histology Core Facility. Blinded kidney histological scores for tubular injury, tubular mitoses, tubular vacuoles, interstitial inflammation, interstitial fibrosis, glomerular were assigned by pathologists.
Kidney Histology. […] In Table 15, pathologist's scoring is as follows: 0—not present; 1—minimal, inconspicuous change; 2—slight, noticeable but not a prominent feature; 3—moderate, prominent feature; 4—marked, dominant but not overwhelming feature; 5—severe, overwhelming change.

CC(C)(CCCCc1ccc(CCCCC(C)(C)C(=O)O)cc1)C(=O)O [Compound I-1, 6-[4-(5-carboxy-5-methylhexyl)-phenyl]-2,2-dimethylhexanoic acid]
reduction of the number of surface tumors ([1]; 30 mg/kg and 100 mg/kg daily oral): over 70% | Fibrosis Score, individual mice [1]: 1a (3×) and 1b (3×) and 1c (2×) | NAFLD Activity Score, individual mice [1]: 4 (4×) and 6 (2×) and 3 and 2 | No. of Surface Tumors, individual mice [1]: 8 and 6 (2×) and 11 and 10 and 14 and 7 and 3 | NAFLD Activity Score, Avg [1]: 4.1 | No. of Surface Tumors, Avg [1]: 8.1 | liver fibrosis (trichrome stained livers) [1]: fibrosis was significantly reduced | NAFLD activity scores (NAS) [1]: reduced NAFLD activity scores (NAS) at both 30 and 100 mg/kg | liver inflammation scores [1]: without altering inflammation scores | liver steatosis and ballooning scores [1]: dramatically reduced steatosis | plasma ALT and AST levels [1]: significantly decreased | clinical chemistry: globulin concentration and albumin:globulin ratio (female Wistar Han rats): minimally lower globulin concentration and minimally higher albumin:globulin ratio | microscopic findings in the kidney (female Wistar Han rats; 300 mg/kg/day): tubular degeneration/necrosis, tubular regeneration, and increased mitoses | compound-related effects in hematology or coagulation test results (female Wistar Han rats): No Compound I-1- or Compound I-32-related effects in hematology or coagulation test results were identified | compound-related mortality, clinical observations, body weight effects, changes in food consumption (female Wistar Han rats): No Compound I-1- or Compound I-32-related mortality, clinical observations, body weight effects, or changes in food consumption were noted | dose whose effects were considered nonadverse (female Wistar Han rats): 100 mg/kg/day | microscopic findings in the liver (female Wistar Han rats): increase in mitoses in hepatocytes | kidney pathological differences vs Vehicle (mouse kidney): no pathological differences | Glomerular score, individual mice (mouse kidney): 0 (3×) and 1 (2×) and 0.5 (3×) | Interstitial fibrosis score, individual mice (mouse kidney): 1 (4×) and 0.5 (2×) and 0 and 1.5 | Interstitial inflammation score, individual mice (mouse kidney): 0 (5×) and 0.5 (3×) | Tubular injury score, individual mice (mouse kidney): 1.5 and 1 and 0.5 (4×) and 0 (2×) | Tubular mitoses score, individual mice (mouse kidney): 1 and 0 (3×) and 0.5 (4×) | Tubular vacuoles score, individual mice (mouse kidney): 3.5 and 1.5 (3×) and 3 and 0.5 (2×) and 1 | Glomerular score, Average (mouse kidney): 0.44 | Interstitial fibrosis score, Average (mouse kidney): 1.0 | Interstitial inflammation score, Average (mouse kidney): 0.19 | Tubular injury score, Average (mouse kidney): 0.56 | Tubular mitoses score, Average (mouse kidney): 0.38 | Tubular vacuoles score, Average (mouse kidney): 1.63

CC(C)(CCCCc1cccc(CCCCC(C)(C)C(=O)O)c1)C(=O)O [Compound I-32, 6-[3-(5-carboxy-5-methylhexyl)-phenyl]-2,2-dimethylhexanoic acid]
Fibrosis Score, individual mice [1]: 1b (4×) and 1c and 1a (3×) | NAFLD Activity Score, individual mice [1]: 2 and 5 and 4 (3×) and 6 and 3 and 1 | No. of Surface Tumors, individual mice [1]: 7 and 6 and 3 (2×) and 1 and 30 and 4 and 2 | NAFLD Activity Score, Avg [1]: 3.625 | No. of Surface Tumors, Avg [1]: 7 | liver fibrosis (trichrome stained livers) [1]: fibrosis was significantly reduced | NAFLD activity scores (NAS) [1]: reduced NAFLD activity scores (NAS) at both 30 and 100 mg/kg | liver inflammation scores [1]: without altering inflammation scores | liver steatosis and ballooning scores [1]: dramatically reduced steatosis | plasma ALT and AST levels [1]: significantly decreased | clinical chemistry: globulin concentration and albumin:globulin ratio (female Wistar Han rats): minimally lower globulin concentration and minimally higher albumin:globulin ratio | clinical chemistry: serum urea nitrogen concentration (female Wistar Han rats; 300 mg/kg/day): Minimally lower serum urea nitrogen concentration | compound-related effects in hematology or coagulation test results (female Wistar Han rats): No Compound I-1- or Compound I-32-related effects in hematology or coagulation test results were identified | compound-related mortality, clinical observations, body weight effects, changes in food consumption (female Wistar Han rats): No Compound I-1- or Compound I-32-related mortality, clinical observations, body weight effects, or changes in food consumption were noted | dose whose effects were considered nonadverse (female Wistar Han rats): 300 mg/kg/day | microscopic findings in the liver (female Wistar Han rats): increase in mitoses in hepatocytes; also recorded: periportal hepatocyte vacuolation | kidney pathological differences vs Vehicle (mouse kidney): no pathological differences | Glomerular score, individual mice (mouse kidney): 0 and 0.5 (5×) and 1 (2×) | Interstitial fibrosis score, individual mice (mouse kidney): 0.5 (2×) and 1 (3×) and 2 and 1.5 (2×) | Interstitial inflammation score, individual mice (mouse kidney): 0 (3×) and 2.5 and 1 and 1.5 and 0.5 (2×) | Tubular injury score, individual mice (mouse kidney): 0 (3×) and 1.5 (4×) and 1 | Tubular mitoses score, individual mice (mouse kidney): 0 (4×) and 1 (2×) and 0.5 (2×) | Tubular vacuoles score, individual mice (mouse kidney): 0.5 and 3.5 and 1.5 and 3 and 2 and 1 (3×) | Glomerular score, Average (mouse kidney): 0.56 | Interstitial fibrosis score, Average (mouse kidney): 1.13 | Interstitial inflammation score, Average (mouse kidney): 0.75 | Tubular injury score, Average (mouse kidney): 0.88 | Tubular mitoses score, Average (mouse kidney): 0.38 | Tubular vacuoles score, Average (mouse kidney): 1.69
